One compound from US7235379B2, “Method and medium for the detection/identification of microorgranisms with esterase activity” (Bio Merieux, priority 2000, dated 2007) can be followed below.

Counter-ions that a name gives are not always drawn.

Assay [1] concerns Staphylococcus epidermidis 009. Kind of assay: Ex.3 colony coloration, 5-bromo-4-chloro-3-indolyl nonanoate 250 mg/l, DMSO/Tween 20. Note: key: 0: no activity; 0.1: trace of coloration; 0.5: very pale coloration; 1: distinct coloration of low intensity; 2: clear coloration of medium intensity; 3: intense coloration; 4: very intense coloration. It counts as cell-based.
Procedure: The esterase substrate tested is 5-bromo-4-chloro-3-indolyl nonanoate. A 40 g/l stock solution of substrate is prepared in a mixture of 40% dimethyl sulfoxide and 60% Tween 20. A sufficient volume is added to a supercooled MacConkey medium (without neutral red) to give a substrate concentration of 250 mg/l.
The intensity of coloration corresponds to an arbitrary scale defined as follows:
Assay [2] relates to bacterial strains exhibiting an esterase activity. As to conditions: between 2 and 16 ml/l, more precisely between 4 and 8 ml/l. How it is done:
The esterase substrate tested is 5-bromo-3-indolyl nonanoate. A 25 g/l stock solution of substrate is prepared in methanol to which 5 g/l of bile salts have been added. A sufficient volume is added to a supercooled MacConkey medium (without neutral red) to give a substrate concentration of 500 mg/l.
Microorganisms originating from the Applicant's collection were inoculated onto this medium from a 0.5 McFarland suspension by isolation in three quadrants. The dishes were incubated at 37° C. for 48 hours. The colonies formed were examined visually after 24 and 48 hours of incubation. The coloration of these colonies and the intensity of this coloration were noted.

Turning to `CCCCC(CC)CCC(CC(C)C)OS(=O)(=O)O` (centres unmarked) [Tergitol 4, 7-ethyl-2-methyl-4-undecanoate hydrogensulfate or its sodium salt], the intensity of coloration in assay [1] (0.001 ml/l, 24 h) was determined as 2; in assay [1] (0.001 ml/l, 48 h), 2; in assay [1] (0.01 ml/l, 24 h) it was 3; in assay [1] (0.01 ml/l, 48 h) it was 3; in assay [1] (0.1 ml/l, 24 h), 2; in assay [1] (0.1 ml/l, 48 h), 3. The intensity of coloration in assay [1] (1 ml/l (1st col), 24 h) came to 2; in assay [1] (1 ml/l (1st col), 48 h) it was 2; in assay [1] (1 ml/l (2nd col), 24 h) it was 0.5; in assay [1] (1 ml/l (2nd col), 48 h) it was 3. For the same compound, the “effect on intensity of coloration” value in assay [2] was “significantly increases the intensity of coloration”.
